# Laboratory results taken from PMC7490411 (Signal Transduction and Targeted Therapy, 2020).
# Assays:
# [1] = test system: TMD8 cell (DLBCL)-inoculated xenograft; assay: TMD8 cell subcutaneous xenograft tumor model; format: in vivo
# [2] = test system: ABL1(F317L)-nonphosphorylated; assay: KINOMEscan; format: binding; details: 1000 nM
# [3] = test system: ABL1(H396P)-nonphosphorylated; assay: KINOMEscan; format: binding; details: 1000 nM
# [4] = test system: ABL1(Q252H)-phosphorylated; assay: KINOMEscan; format: binding; details: 1000 nM
# [5] = test system: BMPR1B; assay: KINOMEscan; format: binding; details: 1000 nM
# [6] = test system: BRAF; assay: KINOMEscan; format: binding; details: 1000 nM
# [7] = test system: BUB1; assay: KINOMEscan; format: binding; details: 1000 nM
# [8] = test system: CAMK1G; assay: KINOMEscan; format: binding; details: 1000 nM
# [9] = test system: CAMKK2; assay: KINOMEscan; format: binding; details: 1000 nM
# [10] = test system: CDC2L2; assay: KINOMEscan; format: binding; details: 1000 nM
# [11] = test system: CDC2L5; assay: KINOMEscan; format: binding; details: 1000 nM
# [12] = test system: CDK3; assay: KINOMEscan; format: binding; details: 1000 nM
# [13] = test system: CDK4-cyclinD1; assay: KINOMEscan; format: binding; details: 1000 nM
# [14] = test system: CDK8; assay: KINOMEscan; format: binding; details: 1000 nM
# [15] = test system: CDK9; assay: KINOMEscan; format: binding; details: 1000 nM
# [16] = test system: CDKL1; assay: KINOMEscan; format: binding; details: 1000 nM
# [17] = test system: CSNK2A2; assay: KINOMEscan; format: binding; details: 1000 nM
# [18] = test system: DAPK2; assay: KINOMEscan; format: binding; details: 1000 nM
# [19] = test system: DLK; assay: KINOMEscan; format: binding; details: 1000 nM
# [20] = test system: DYRK1B; assay: KINOMEscan; format: binding; details: 1000 nM
# [21] = test system: EPHA2; assay: KINOMEscan; format: binding; details: 1000 nM
# [22] = test system: EPHA4; assay: KINOMEscan; format: binding; details: 1000 nM
# [23] = test system: ERK2; assay: KINOMEscan; format: binding; details: 1000 nM
# [24] = test system: FAK; assay: KINOMEscan; format: binding; details: 1000 nM
# [25] = test system: FGFR1; assay: KINOMEscan; format: binding; details: 1000 nM
# [26] = test system: FGFR3(G697C); assay: KINOMEscan; format: binding; details: 1000 nM
# [27] = test system: FLT3(D835Y); assay: KINOMEscan; format: binding; details: 1000 nM
# [28] = test system: GRK3; assay: KINOMEscan; format: binding; details: 1000 nM
# [29] = test system: GRK7; assay: KINOMEscan; format: binding; details: 1000 nM
# [30] = test system: HASPIN; assay: KINOMEscan; format: binding; details: 1000 nM
# [31] = test system: KIT(D816H); assay: KINOMEscan; format: binding; details: 1000 nM
# [32] = test system: LKB1; assay: KINOMEscan; format: binding; details: 1000 nM
# [33] = test system: LRRK2(G2019S); assay: KINOMEscan; format: binding; details: 1000 nM
# [34] = test system: MAP3K15; assay: KINOMEscan; format: binding; details: 1000 nM
# [35] = test system: MAST1; assay: KINOMEscan; format: binding; details: 1000 nM
# [36] = test system: MELK; assay: KINOMEscan; format: binding; details: 1000 nM
# [37] = test system: MST4; assay: KINOMEscan; format: binding; details: 1000 nM
# [38] = test system: NEK3; assay: KINOMEscan; format: binding; details: 1000 nM
# [39] = test system: NEK9; assay: KINOMEscan; format: binding; details: 1000 nM
# [40] = test system: NIM1; assay: KINOMEscan; format: binding; details: 1000 nM
# [41] = test system: PCTK2; assay: KINOMEscan; format: binding; details: 1000 nM
# [42] = test system: PDPK1; assay: KINOMEscan; format: binding; details: 1000 nM
# [43] = test system: PIK3CA(H1047Y); assay: KINOMEscan; format: binding; details: 1000 nM
# [44] = test system: PIK3CA(M1043I); assay: KINOMEscan; format: binding; details: 1000 nM
# [45] = test system: PLK4; assay: KINOMEscan; format: binding; details: 1000 nM
# [46] = test system: PRKD1; assay: KINOMEscan; format: binding; details: 1000 nM
# [47] = test system: PRKD2; assay: KINOMEscan; format: binding; details: 1000 nM
# [48] = test system: PRKR; assay: KINOMEscan; format: binding; details: 1000 nM
# [49] = test system: PYK2; assay: KINOMEscan; format: binding; details: 1000 nM
# [50] = test system: RET(V804L); assay: KINOMEscan; format: binding; details: 1000 nM
# [51] = test system: RIPK5; assay: KINOMEscan; format: binding; details: 1000 nM
# [52] = test system: SGK2; assay: KINOMEscan; format: binding; details: 1000 nM
# [53] = test system: STK36; assay: KINOMEscan; format: binding; details: 1000 nM
# [54] = test system: TGFBR2; assay: KINOMEscan; format: binding; details: 1000 nM
# [55] = test system: TNK1; assay: KINOMEscan; format: binding; details: 1000 nM
# [56] = test system: TRKB; assay: KINOMEscan; format: binding; details: 1000 nM
# [57] = test system: TYRO3; assay: KINOMEscan; format: binding; details: 1000 nM
# [58] = test system: ULK2; assay: KINOMEscan; format: binding; details: 1000 nM
# [59] = test system: ULK3; assay: KINOMEscan; format: binding; details: 1000 nM
structure (smiles),measurement,setting,value
C=CC(=O)Nc1cc(Nc2cc(-c3cccc(NC(=O)c4cc5c(s4)CCCC5)c3C)cn(C)c2=O)ccc1N1CCN(CC)CC1 [CHMFL-BTK-85],TGI,"[1]; TMD8 xenograft, 100 mg/kg/day, 28 days",96%
same,toxicity signs in TMD8 xenograft model,"[1]; mouse, body weight monitoring",no weight loss or any other obvious signs of toxicity
same,Percent Control,[2],100%
same,Percent Control,[3],92%
same,Percent Control,[4],96%
same,Percent Control,[5],100%
same,Percent Control,[6],100%
same,Percent Control,[7],100%
same,Percent Control,[8],94%
same,Percent Control,[9],100%
same,Percent Control,[10],89%
same,Percent Control,[11],100%
same,Percent Control,[12],86%
same,Percent Control,[13],100%
same,Percent Control,[14],100%
same,Percent Control,[15],100%
same,Percent Control,[16],77%
same,Percent Control,[17],98%
same,Percent Control,[18],100%
same,Percent Control,[19],100%
same,Percent Control,[20],99%
same,Percent Control,[21],87%
same,Percent Control,[22],100%
same,Percent Control,[23],91%
same,Percent Control,[24],99%
same,Percent Control,[25],86%
same,Percent Control,[26],87%
same,Percent Control,[27],100%
same,Percent Control,[28],100%
same,Percent Control,[29],100%
same,Percent Control,[30],100%
same,Percent Control,[31],100%
same,Percent Control,[32],92%
same,Percent Control,[33],100%
same,Percent Control,[34],96%
same,Percent Control,[35],100%
same,Percent Control,[36],99%
same,Percent Control,[37],100%
same,Percent Control,[38],80%
same,Percent Control,[39],100%
same,Percent Control,[40],100%
same,Percent Control,[41],100%
same,Percent Control,[42],77%
same,Percent Control,[43],83%
same,Percent Control,[44],71%
same,Percent Control,[45],97%
same,Percent Control,[46],100%
same,Percent Control,[47],100%
same,Percent Control,[48],49%
same,Percent Control,[49],100%
same,Percent Control,[50],76%
same,Percent Control,[51],98%
same,Percent Control,[52],100%
same,Percent Control,[53],99%
same,Percent Control,[54],100%
same,Percent Control,[55],75%
same,Percent Control,[56],100%
same,Percent Control,[57],97%
same,Percent Control,[58],100%
same,Percent Control,[59],100%
